According to paper PMC7125202, “Targeting of radioactive platinum-bisphosphonate anticancer drugs to bone of high metabolic activity” (Scientific Reports, 2020):

Columns and labels:
[1] = tested on: genomic DNA; experiment: Pt-DNA adducts quantification using High Resolution ICP-MS; format: in vivo, C57Bl/6N mice; details: 24 h after i.v. injection
From the text: The remaining half of the tissues from all mice were dissected and weighed for DNA extraction. DNA was isolated using DNeasy Blood & Tissue Kit (Qiagen, USA) for soft tissue and ChargeSwitch® gDNA Plant Kit (Thermofisher, USA) for bone samples. The DNA was digested with DNase I Solution (Thermofisher, USA) and filtered using 0.2 µm acrodisc GHP before analysis for Pt content using high resolution-ICP-MS (Element2, Thermo Finnigan). The detection limit for determining the platinum concentration was 2 ng/l. The standard solutions were prepared from 1000 mg·1^−1 platinum ICP standard Certipur (1.70341.0100, Merck) ranging from 5 ppt to 10 ppb. The selected isotopes for platinum were ^194Pt and ^195Pt. Furthermore, thallium (Tl) was added as an internal standard and determined at a molecular mass of 205 Da, which was prepared using a 1000 mg·1^−1 thallium standard (CGTL-1, Inorganic Ventures) to correct for matrix effects and long-term fluctuations of the analytical signal. The Pt-DNA adduct concentration is represented as percentage of Pt involved in adduct formation to the total amount of Pt accumulated in the specific tissue.

[2] = Pt-BP pH stability assessed by 31P NMR; format: physicochemical; details: 120 mM NaCl, D2O, 37 °C
Protocol: ^31P NMR spectra were recorded on a Bruker Avance III […] instrument. Standard pulse sequences were used for ^31P{1H} (121.5 MHz) spectra. Chemical shifts (^31P) were referenced to external H3PO4 (85% w/w; 0 ppm). A Crison Micro-pH meter Model 2002, equipped with Crison microcombination electrodes (5- and 3-mm diameter) and calibrated with Crison standard buffer solution at pH 4.01, 7.02, and 10.00, was used for pH measurements. The pH readings from the pH meter for D2O solutions are indicated as pD values and are uncorrected for the effect of deuterium on glass electrodes. The stability of Pt-BP in buffered solutions at 37 °C was assessed by ^31P NMR spectroscopy as previously reported. Pt-BP (∼4 mg) was dissolved in 0.8 mL of D2O containing (i) 50 mM 4-(2-hydroxyethyl)-1-piperazineethanesulfonic acid) (HEPES) buffer (pD = 7.4) and 120 mM NaCl or (ii) 50 mM 2-(N-morpholino)ethanesulfonic acid (MES) buffer (pD = 5.25) and 120 mM NaCl. The resulting two solutions were transferred into NMR tubes and maintained at 37 °C. ^31P NMR spectra were recorded over a period of 15 days. The relative concentrations of the individual species in solution were deduced from integration of the ^31P signals.
To investigate the stability of Pt-BP in near-physiological conditions, we utilized a medium consisting of D2O containing HEPES buffer (50 mM, pH = 7.4) and NaCl (120 mM) at 37 °C, in which we analyzed Pt-BP stability by ^31P-NMR spectroscopy. […] Two other asymmetrical species are visible in the ^31P-NMR spectrum recorded after 3 h as evidenced by the two pairs of doublets falling at 28.15 and 22.98 ppm and 26.25 and 21.51 ppm (indicated by the black squares and diamonds in Supplement Fig. 2A). […]
To simulate the acidic environment in tumor tissue^3,4, we explored the stability of Pt-BP complexes at pD = 5.25 at 37 °C by ^31P-NMR spectroscopy (Supplement Fig. 2B). […] However, the formation of M was slower at acidic pD, while its hydrolysis, with concomitant formation of free bisphosphonate (BP), was faster than at pD 7.4 since Pt-BP and BP were detected after 48 h (Supplement Fig. 2B).

[3] = tested on: lateral line neuromast hair cells; experiment: Ototoxicity assay, DASPEI staining; format: in vivo, zebrafish (Danio rerio); details: 48 h post treatment, 5, 10 and 50 µM
Protocol: The lateral line neuromast hair cells in embryos were stained with a vital dye to analyse the loss of hair cells after Pt-BP treatment. Cisplatin was used as a control, as it was known to affect hair cells in humans. The fluorescent dye 2-[4-(dimethylamino)styryl]-N-ethylpyridinium iodide (DASPEI) [Molecular Probes, Eugene, OR] was used to stain hair cells in the neuromast as described previously. Larvae were incubated in embryo medium containing 0.005% DASPEI for 15 min, anesthetized in Tricaine MS222 (10 µg/ml) for 5 min, rinsed once in fresh embryo medium, and imaged using Vertebrate automated screening technology (VAST, Union Biometrica), combined with high-speed and super-resolution Zeiss cell observer spinning disk confocal system. The quantification of number of neuromast hair cells in the treated embryos was done manually with confocal microscopy (Zeiss LSM780).

[4] = cited from earlier work

SMILES: NCCN.NCCN.O.O.O.O=S(=O)([O-])O.[NH3+]CC1(O)P2(=O)[O][Pt][O]P1(=O)[O][Pt][O]2 (stereo not drawn) [Pt-BP, dinuclear bis<ethylenediamineplatinum(II) > -2-amino-1-hydroxyethane-1,1-diyl-bisphosphonate complex]
- Pt-DNA adduct formation relative to total Pt uptake, all tissues except kidney and spleen [1]: < 0.5%
- Pt-DNA adduct formation relative to total Pt uptake, kidney [1]: 2.8%
- Pt-DNA adduct formation relative to total Pt uptake, spleen [1]: 1.4%
- time of release of both Pt(en) moieties (free BP detected) ([2]; pD 5.25, 50 mM MES): 48 h
- time after which no traces of the starting Pt-BP complex were observed ([2]; pD 7.4, 50 mM HEPES): ≤ 24 h
- time of release of the second Pt(en) moiety (appearance of free BP) ([2]; pD 7.4, 50 mM HEPES): 96 h
- ototoxic effect (lateral line neuromast hair cell quantification) [3]: dose-dependent ototoxic effect
- stability in neutral aqueous solution ([4]; pH 7.0, room temperature): stable in neutral aqueous solution (pH 7.0, room temperature) for several months
- stability in water at pH > 8.0 ([4]; pH > 8.0): rearranges rather than decomposes
